Results published in patent US12629468B2, “Devices and methods for delivering synergistic active agents to target sites” (IRRIMAX Corporation, priority 2023, dated 2026).
Where two headings read alike, the source gives them in different places.

Assays:
Assay type in all cases: cell-based
E. coli (ATCC BAA 1427) [1] = test: Minimum inhibitory concentration / growth inhibition by serial 2-fold dilution; settings: for Average Growth Inhibition (%): average of triplicate
Method: (§1) The minimal inhibitory concentration (MIC, the minimum inhibitory concentration required for 90% growth reduction) of ethyl lauroyl arginate hydrochloride was determined against S. aureus (ATCC 6538), P. aeruginosa (ATCC 15442), and E. coli (ATCC BAA 1427) by serial 2-fold dilution experiments. A solution of chlorhexidine (0.025% w/w) was used as a positive control and comparator.

[2] = test system: P. aeruginosa (ATCC 15442); test: as above; settings: for Average Growth Inhibition (%): average of triplicate
Method: as §1

S. aureus (ATCC 6538) [3] = test: as above; settings: for Average Growth Inhibition (%): average of triplicate
Method: as §1

E. coli (ATCC BAA 1427) [4] = test: Minimal bactericidal concentration by serial 2-fold dilution
Method: as §1, with “bactericidal” for “inhibitory”, “(MBC)” for “(MIC, the minimum inhibitory concentration required for 90% growth reduction)”, “hydrochloride (LAE)” for “hydrochloride”

[5] = test system: P. aeruginosa (ATCC 15442); test: as above
Method: as §1, with “bactericidal” for “inhibitory”, “(MBC)” for “(MIC, the minimum inhibitory concentration required for 90% growth reduction)”, “hydrochloride (LAE)” for “hydrochloride”

S. aureus (ATCC 6538) [6] = test: as above
Method: as §1, with “bactericidal” for “inhibitory”, “(MBC)” for “(MIC, the minimum inhibitory concentration required for 90% growth reduction)”, “hydrochloride (LAE)” for “hydrochloride”

E. coli = test: Chequerboard assay, FIC and synergy analysis; settings: for MIC: Escherichia coli
Method: (§2) Chlorhexidine gluconate (CHG) and ethyl lauroyl arginate hydrochloride (LAE) were analyzed by chequerboard assay with each test organism to determine potential additive, synergistic, and antagonistic activity. The test organisms S. aureus, P. aeruginosa, and E. coli were tested at ranges of chlorhexidine gluconate (0.122-15.625 μg/mL, 1.25-160 μg/mL, and 0.125-16 μg/mL, respectively) and ethyl lauroyl arginate hydrochloride (LAE) (0.117-15 μg/mL, 0.4688-60 μg/mL, and 0.2344-30 μg/mL, respectively). FIC was calculated by the following Equation 2: […]

S. aureus = test: Chequerboard assay, FIC and synergy analysis; settings: for MIC: Staphylococcus aureus
Method: as §2

P. aeruginosa = test: Chequerboard assay, FIC and synergy analysis; settings: for MIC: Pseudomonas aeruginosa
Method: as §2

[7] = 250 μg/mL (0.025% w/w), positive control
[8] = 250 μg/mL (0.025% w/w), positive control, listed as chlorhexidine
[9] = read-out: MIC of CHG in Presence of LAE
[10] = inhibited greater than 90% growth
[11] = 0.46875 μg/mL, average over triplicate
[12] = 0.9375 μg/mL, average over triplicate
[13] = 1.875 μg/mL, average over triplicate
[14] = 3.75 μg/mL, average over triplicate
[15] = 7.5 μg/mL, average over triplicate
[16] = 15 μg/mL, average over triplicate
[17] = 30 μg/mL, average over triplicate
[18] = 60 μg/mL, average over triplicate
[19] = defined as having less than 500 CFU/mL, hydrochloride

SMILES: N=C(NCCCCCCNC(=N)NC(=N)Nc1ccc(Cl)cc1)NC(=N)Nc1ccc(Cl)cc1 [Chlorhexidine gluconate, reference compound]
- inhibition at 250 µg/mL (E. coli (ATCC BAA 1427) [1]; Escherichia coli, BAA1427, 250 μg/mL (0.025% w/w), positive control): 63%
- inhibition at 250 µg/mL ([2]; Pseudomonas aeruginosa, ATCC15442, read-out: Average Growth Inhibition (%)): 81%
- inhibition at 250 µg/mL (S. aureus (ATCC 6538) [3]; Staphylococcus aureus, ATCC6538, read-out: Average Growth Inhibition (%)): 121%
- CFU/mL (E. coli (ATCC BAA 1427) [4]; [7]): 0 CFU/mL
- Number of Colonies (E. coli (ATCC BAA 1427) [4]; [7]): 0
- Number of Colonies (E. coli (ATCC BAA 1427) [4]; [8]): no colonies
- CFU/mL [5, 7]: 0 CFU/mL
- Number of Colonies [5, 7]: 0
- Number of Colonies [5, 8]: no colonies
- CFU/mL (S. aureus (ATCC 6538) [6]; [7]): 0 CFU/mL
- Number of Colonies (S. aureus (ATCC 6538) [6]; [7]): 0
- Number of Colonies (S. aureus (ATCC 6538) [6]; [8]): no colonies
- MIC (E. coli; read-out: MIC of CHG Alone): 8 µg/mL
- MIC (E. coli; [9]): 4 µg/mL
- MIC (S. aureus; read-out: MIC of CHG Alone): 1.95 µg/mL
- MIC (S. aureus; [9]): 0.977 µg/mL
- MIC (P. aeruginosa; read-out: MIC of CHG Alone): 40 µg/mL
- MIC (P. aeruginosa; [9]): 10 µg/mL

SMILES: CCCCCCCCCCCC(=O)N[C@@H](CCCN=C(N)N)C(=O)OCC.Cl [ethyl lauroyl arginate hydrochloride]
- Average Growth Inhibition (%) (E. coli (ATCC BAA 1427) [1]; 0.46875 μg/mL): 3%
- Average Growth Inhibition (%) (E. coli (ATCC BAA 1427) [1]; 0.9375 μg/mL): 6%
- Average Growth Inhibition (%) (E. coli (ATCC BAA 1427) [1]; 1.875 μg/mL): 5%
- Average Growth Inhibition (%) (E. coli (ATCC BAA 1427) [1]; 3.75 μg/mL): 4%
- Average Growth Inhibition (%) (E. coli (ATCC BAA 1427) [1]; 7.5 μg/mL): 4%
- Average Growth Inhibition (%) (E. coli (ATCC BAA 1427) [1]; 15 μg/mL): 100%
- Average Growth Inhibition (%) (E. coli (ATCC BAA 1427) [1]; 30 μg/mL): 100%
- Average Growth Inhibition (%) (E. coli (ATCC BAA 1427) [1]; 60 μg/mL): 99%
- Average Growth Inhibition (%) ([2]; 0.46875 μg/mL): 2%
- Average Growth Inhibition (%) ([2]; 0.9375 μg/mL): 2%
- Average Growth Inhibition (%) ([2]; 1.875 μg/mL): 2%
- Average Growth Inhibition (%) ([2]; 3.75 μg/mL): 4%
- Average Growth Inhibition (%) ([2]; 7.5 μg/mL): 5%
- Average Growth Inhibition (%) ([2]; 15 μg/mL): 2%
- Average Growth Inhibition (%) ([2]; 30 μg/mL): 100%
- Average Growth Inhibition (%) ([2]; 60 μg/mL): 99%
- MIC [2, 10]: 30 µg/mL
- Average Growth Inhibition (%) (S. aureus (ATCC 6538) [3]; 0.46875 μg/mL): 7%
- Average Growth Inhibition (%) (S. aureus (ATCC 6538) [3]; 0.9375 μg/mL): -1%
- Average Growth Inhibition (%) (S. aureus (ATCC 6538) [3]; 1.875 μg/mL): -17%
- Average Growth Inhibition (%) (S. aureus (ATCC 6538) [3]; 3.75 μg/mL): 100%
- Average Growth Inhibition (%) (S. aureus (ATCC 6538) [3]; 7.5 μg/mL): 101%
- Average Growth Inhibition (%) (S. aureus (ATCC 6538) [3]; 15 μg/mL): 101%
- Average Growth Inhibition (%) (S. aureus (ATCC 6538) [3]; 30 μg/mL): 97%
- Average Growth Inhibition (%) (S. aureus (ATCC 6538) [3]; 60 μg/mL): 93%
- MIC (S. aureus (ATCC 6538) [3]; [10]): 3.75 µg/mL
- CFU/mL (E. coli (ATCC BAA 1427) [4]; 0.46875 μg/mL): Lawn
- Number of Colonies (E. coli (ATCC BAA 1427) [4]; [11]): Lawn (‘Lawn’ indicates too many colonies to accurately count (e.g., greater than 250 colonies on an agar plate))
- CFU/mL (E. coli (ATCC BAA 1427) [4]; 0.9375 μg/mL): Lawn
- Number of Colonies (E. coli (ATCC BAA 1427) [4]; [12]): Lawn (‘Lawn’ indicates too many colonies to accurately count (e.g., greater than 250 colonies on an agar plate))
- CFU/mL (E. coli (ATCC BAA 1427) [4]; 1.875 μg/mL): Lawn
- Number of Colonies (E. coli (ATCC BAA 1427) [4]; [13]): Lawn (‘Lawn’ indicates too many colonies to accurately count (e.g., greater than 250 colonies on an agar plate))
- CFU/mL (E. coli (ATCC BAA 1427) [4]; 3.75 μg/mL): Lawn
- Number of Colonies (E. coli (ATCC BAA 1427) [4]; [14]): Lawn (‘Lawn’ indicates too many colonies to accurately count (e.g., greater than 250 colonies on an agar plate))
- CFU/mL (E. coli (ATCC BAA 1427) [4]; 7.5 μg/mL): Lawn
- Number of Colonies (E. coli (ATCC BAA 1427) [4]; [15]): Lawn (‘Lawn’ indicates too many colonies to accurately count (e.g., greater than 250 colonies on an agar plate))
- CFU/mL (E. coli (ATCC BAA 1427) [4]; 15 μg/mL): 0 CFU/mL
- Number of Colonies (E. coli (ATCC BAA 1427) [4]; [16]): 0
- CFU/mL (E. coli (ATCC BAA 1427) [4]; 30 μg/mL): 0 CFU/mL
- Number of Colonies (E. coli (ATCC BAA 1427) [4]; [17]): 0
- CFU/mL (E. coli (ATCC BAA 1427) [4]; 60 μg/mL): 0 CFU/mL
- Number of Colonies (E. coli (ATCC BAA 1427) [4]; [18]): 0
- MBC (E. coli (ATCC BAA 1427) [4]; [19]): 15 µg/mL
- CFU/mL ([5]; 0.46875 μg/mL): Lawn
- Number of Colonies [5, 11]: Lawn (‘Lawn’ indicates too many colonies to accurately count (e.g., greater than 250 colonies on an agar plate))
- CFU/mL ([5]; 0.9375 μg/mL): Lawn
- Number of Colonies [5, 12]: Lawn (‘Lawn’ indicates too many colonies to accurately count (e.g., greater than 250 colonies on an agar plate))
- CFU/mL ([5]; 1.875 μg/mL): Lawn
- Number of Colonies [5, 13]: Lawn (‘Lawn’ indicates too many colonies to accurately count (e.g., greater than 250 colonies on an agar plate))
- CFU/mL ([5]; 3.75 μg/mL): Lawn
- Number of Colonies [5, 14]: Lawn (‘Lawn’ indicates too many colonies to accurately count (e.g., greater than 250 colonies on an agar plate))
- CFU/mL ([5]; 7.5 μg/mL): Lawn
- Number of Colonies [5, 15]: Lawn (‘Lawn’ indicates too many colonies to accurately count (e.g., greater than 250 colonies on an agar plate))
- CFU/mL ([5]; 15 μg/mL): Lawn
- Number of Colonies [5, 16]: Lawn (‘Lawn’ indicates too many colonies to accurately count (e.g., greater than 250 colonies on an agar plate))
- CFU/mL ([5]; 30 μg/mL): 0 CFU/mL
- Number of Colonies [5, 17]: 0
- CFU/mL ([5]; 60 μg/mL): 0 CFU/mL
- Number of Colonies [5, 18]: 0
- MBC [5, 19]: 30 µg/mL
- CFU/mL (S. aureus (ATCC 6538) [6]; 0.46875 μg/mL): Lawn
- Number of Colonies (S. aureus (ATCC 6538) [6]; [11]): Lawn (‘Lawn’ indicates too many colonies to accurately count (e.g., greater than 250 colonies on an agar plate))
- CFU/mL (S. aureus (ATCC 6538) [6]; 0.9375 μg/mL): Lawn
- Number of Colonies (S. aureus (ATCC 6538) [6]; [12]): Lawn (‘Lawn’ indicates too many colonies to accurately count (e.g., greater than 250 colonies on an agar plate))
- CFU/mL (S. aureus (ATCC 6538) [6]; 1.875 μg/mL): Lawn
- Number of Colonies (S. aureus (ATCC 6538) [6]; [13]): Lawn (‘Lawn’ indicates too many colonies to accurately count (e.g., greater than 250 colonies on an agar plate))
- CFU/mL (S. aureus (ATCC 6538) [6]; 3.75 μg/mL): 500 CFU/mL
- Number of Colonies (S. aureus (ATCC 6538) [6]; [14]): 5
- CFU/mL (S. aureus (ATCC 6538) [6]; 7.5 μg/mL): 0 CFU/mL
- Number of Colonies (S. aureus (ATCC 6538) [6]; [15]): 0
- CFU/mL (S. aureus (ATCC 6538) [6]; 15 μg/mL): 0 CFU/mL
- Number of Colonies (S. aureus (ATCC 6538) [6]; [16]): 0
- CFU/mL (S. aureus (ATCC 6538) [6]; 30 μg/mL): 0 CFU/mL
- Number of Colonies (S. aureus (ATCC 6538) [6]; [17]): 0
- CFU/mL (S. aureus (ATCC 6538) [6]; 60 μg/mL): 0 CFU/mL
- Number of Colonies (S. aureus (ATCC 6538) [6]; [18]): 0
- MBC (S. aureus (ATCC 6538) [6]; [19]): 3.75 µg/mL
- MIC of LAE Alone (E. coli; alone): 15 µg/mL
- MIC of LAE in Presence of CHG (E. coli; in presence of CHG): 3.75 µg/mL
- MIC of LAE Alone (S. aureus; alone): 3.75 µg/mL
- MIC of LAE in Presence of CHG (S. aureus; in presence of CHG): 1.875 µg/mL
- MIC of LAE Alone (P. aeruginosa; alone): 30 µg/mL
- MIC of LAE in Presence of CHG (P. aeruginosa; in presence of CHG): 7.5 µg/mL
